pKi: −log10 of the molar value. Where two headings read alike, the source gives them in different places. Marks after values point to notes of the source that are not given here. One block for each molecule: values may come before it.
How the values were obtained:
[1] = target: FKBP12 (Homo sapiens, UniProt P62942); assay: Ki test procedure: inhibition of peptidyl-prolyl isomerase (rotamase) activity, chymotrypsin-coupled assay; format: biochemical
Description: The inhibition of the prolyl peptidyl cis-trans isomerase activity of FKBP may be measured as an indicator of this affinity. Inhibition of the peptidyl-prolyl isomerase (rotamase) activity of the compounds used in the inventive methods and pharmaceutical compositions can be evaluated by known methods described in the literature (Harding et al., Nature, 1989, 341:758-760; Holt et al. J. Am. Chem. Soc., 115:9923-9938). […] The cis-trans isomerization of an alanine-proline bond in a model substrate, N-succinyl-[…]-nitroanilide, is monitored spectrophotometrically in a chymotrypsin-coupled assay, which releases para-nitroanilide from the trans form of the substrate. The inhibition of this reaction caused by the addition of different concentrations of inhibitor is determined, and the data is analyzed as a change in first-order rate constant as a function of inhibitor concentration to yield the apparent Ki values. […] The reaction is initiated by the addition of […] of substrate (succinyl-[…]-nitroanilide, 5 mg/mL in 2.35 mM LiCl in trifluoroethanol). The absorbance at 390 nm versus time is monitored for 90 seconds using a spectrophotometer and the rate constants are determined from the absorbance versus time data files.

[2] = test system: retinal ganglion cell axons; assay: Protection of retinal ganglion cell axons from degeneration 14 days after optic nerve transection (Table V); format: in vivo; details: ± SEM
Description: Efficacy of representative compounds from different immunophilin ligand series in protecting retinal ganglion cell axons from degeneration following optic nerve transection is set forth in Table V.

[3] = Clearance (Table V comments); format: in vitro ADME
[4] = test system: streptozotocin-induced diabetic rat; assay: Streptozotocin-induced diabetic sensory neuropathy, hot plate and tail flick; format: in vivo, Male Wistar rats; details: lesioned animals treated for 6 weeks at 10 mg/kg s.c.
Procedure: The procedure involved using Male Wistar rats which were given a single injection of streptozotocin (65 mg/kg i.v.). Blood glucose levels were determined weekly for the first three weeks and on the last week of the experiment. Animals were evaluated weekly for signs of sensory neuropathy using the conventional hot plate and tail flick apparatus test procedures.

[5] = test system: retinal ganglion cells and optic nerve axons; assay: Optic nerve transection, 14 or 28 day treatment, evaluated 90 days after transection; format: in vivo, Sprague Dawley rats; details: for Proximal optic nerve myelin basic protein Density: % areal coverage of optic nerve cross section, ± SEM; for Distal optic nerve: shrinkage of cross sectional area: compared to sham control
Description: All eyes and optic nerves stumps were removed.

[6] = test system: retinal ganglion cells; assay: Example 13: optic nerve transection, 28 days treatment, sacrifice 90 days after transection; format: in vivo, Sprague Dawley rats; details: 10 mg/kg/day s.c. for 28 days
[7] = apparent Ki, Table C, read-out: Ki
[8] = Table V comments, read-out: Ki rotamase

Chain of FKBP12 (P62942 whole entry, species assumed): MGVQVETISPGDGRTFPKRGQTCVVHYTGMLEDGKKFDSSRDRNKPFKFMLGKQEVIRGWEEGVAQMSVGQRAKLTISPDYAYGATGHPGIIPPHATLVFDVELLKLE

Structure (SMILES): COC(=O)C(=O)N1CCCCC1C(=O)OCCCC1CCCCC1 (centres unmarked) [Compound 18]
pKi [1, 7]: 4.70

Structure (SMILES): COc1ccc(CCCCOC(=O)C2CCCCN2C(=O)C(=O)c2cc(OC)c(OC)c(OC)c2)cc1 (centres unmarked) [Compound 25]
pKi [1, 7]: 7.89

Structure (SMILES): O=C(SCCCc1ccccc1)[C@@H]1CCCN1C(=O)NC12CC3CC4(CC(C3)(C4)C1)C2 [Compound B]
pKi [1, 8]: 6.83
RT97 + RGC axon density 14 days after ON transection (% ON axons rescued) [2]: 100.0% ± 5.2% SEM

Structure (SMILES): O=C(OCCCCc1ccccc1)[C@@H]1CCCCN1S(=O)(=O)Cc1ccccc1 [D]
RT97 + RGC axon density 14 days after ON transection (% ON axons rescued) [2]: 58.4% ± 6.4% SEM

Structure (SMILES): CCC(C)(C)C(=O)C(=O)N1CCS[C@@H]1C(=O)OCCCc1cccnc1 [F]
RT97 + RGC axon density 14 days after ON transection (% ON axons rescued) [2]: 55.1% ± 5.9% SEM

Structure (SMILES): CCC(C)(C)C(=O)C(=O)N1CCC[C@H]1C(=O)OCCCc1cccnc1 [GPI 1046]
latency in hot plate and tail flick [4]: improvement in latency
Proximal optic nerve myelin basic protein Density ([5]; ONT/14 days GPI 1046): did not alter the pattern of myelin degeneration
Distal optic nerve: shrinkage of cross sectional area ([5]; ONT/14 days GPI 1046): did not protect against shrinkage of the distal stump
Distal optic nerve myelin basic protein Density: myelin loss ([5]; ONT/14 days GPI 1046, cross sectional area multiplied by myelin density): slightly increase the density,of myelin
RGC Counts ([5]; ONT/28 days GPI 1046, 10 mg/kg/day sc, 90 days after transection, mean density of Fluoro-gold labeled RGC in 400 μm × 400 μm gridfields): 67.9 +
Proximal optic nerve myelin basic protein Density ([5]; ONT/28 days GPI 1046): dramatic preservation of the fascicular staining pattern
ON axon Count ([5]; ONT/28 days GPI 1046, calculated by multiplying axonal density by ON area): 22.861*
Distal optic nerve: shrinkage of cross sectional area ([5]; ONT/28 days GPI 1046): prevented cross sectional shrinkage
Distal optic nerve myelin basic protein Density: myelin preservation ([5]; ONT/28 days GPI 1046, cross sectional area multiplied by myelin density): 99% myelin % myelin preservation
preservation of axons in the proximal stump (RT97 neurofilament immunohistochemistry) [6]: preserved the axons of virtually all protected neurons

Structure (SMILES): CCC(C)(C)C(=O)C(=O)N1CCCC[C@H]1C(N)=O [H]
RT97 + RGC axon density 14 days after ON transection (% ON axons rescued) [2]: 30.3% ± 8.0% SEM

Structure (SMILES): CCC(C)(C)C(=O)C(=O)N1CCC[C@H]1C(=O)CCCCc1cccnc1 [J]
RT97 + RGC axon density 14 days after ON transection (% ON axons rescued) [2]: 15.8% ± 4.8% SEM

Structure (SMILES): CCC(C)(C)C(=O)C(=O)N1CCC[C@H]1C(=O)SCCC(c1ccccc1)c1ccccc1 [M]
RT97 + RGC axon density 14 days after ON transection (% ON axons rescued) [2]: −6.3% + 3.9% SEM

Continued, in another order:

pKi [1, 7]: 4.46
Structure (SMILES): COC(=O)C(=O)N1CCCCC1C(=O)OCCCC1CCCC1 (centres unmarked) [Compound 19]

Clearance [3]: 4.5 µL/min
Structure (SMILES): CCC(C)(C)C(=O)C(=O)N1CCCC[C@H]1C(=O)SCCC(c1ccccc1)c1ccccc1 [Compound K]
RT97 + RGC axon density 14 days after ON transection (% ON axons rescued) [2]: 13.0% ± 4.2% SEM

Clearance [3]: 41.8 µL/min
Structure (SMILES): CCC(C)(C)C(=O)C(=O)N1CCCC[C@H]1C(=O)OC(CCc1ccccc1)CCc1ccccc1 [E]

pKi [1, 8]: < 5.00
Structure (SMILES): CCC(C)(C)C(=O)C(=O)N1CCCC[C@H]1C(=O)O [G]
RT97 + RGC axon density 14 days after ON transection (% ON axons rescued) [2]: 34.0% ± 4.8% SEM

pKi [1, 8]: ≤ 5.11
Structure (SMILES): CCC(C)(C)C(=O)C(=O)N1CCC[C@H]1C(=O)O [L]
